Here are results for one molecule from patent publication US10597352B1, “Stable alkyl benzidine composition and methods of making and using same” (OneStep Technologies Inc., priority 2019, dated 2020).

Structures are written as SMILES.

This data set is described as follows: Stability evaluation of alkyl benzidine solutions on storage at a stated temperature (method not described). The class given is physicochemical. How it is done:
In one example, a solution of TMB prepared in polyethylene glycol in accordance with Example 1.0 was evaluated for stability. It was determined that the solution was stable at room temperature (i.e. 22° C.) for a period of at least two years. It was further determined that the solution was stable at 37° C. for a period of at least two months.

For `Cc1cc(-c2cc(C)c(NCCCS(=O)(=O)O)c(C)c2)cc(C)c1N` [N-(3-sulfopropyl)-3,3′,5,5′-tetramethylbenzidine], the “stability of compositions produced with the tetraalkyl benzidine compound (in words)” value is reported as “stable compositions”.
